The results in this text go back to patent US6844364B2, “Stabilization of retinoid compounds” (Johnson & Johnson Consumer Companies, Inc., priority 2001, dated 2005).

Molecules are shown by their SMILES.

The format of the series is physicochemical. How it is done: Finsolv® TN is a C12-15 alkyl benzoate from Fintex, Inc. (Elmwood Park, N.J.) Miglyol® 812 from Huls AG (Marl, Germany) and Neobee® 1053 from Stepan Company (Northfield, Ill.) are each a caprylic/capric triglyceride.
The general procedure to prepare the above formulations is as follows. A 500 mg of Compound 1 was weighed and transferred into an 800 ml glass beaker containing 500 g of one of the above carriers. The formulation was then stirred with a paddle mixer (stirrer type RZR50 from Caframo in Wiarton, Ontario, Canada) at 100 RPM setting until the compound was completely dissolved/dispersed in the carrier.
About 20 g each of the resulting formulations were then packed into 24 clear glass scintillation vials of 20 ml volume (Wheaton Disposable Scintillation Vials from Wheaton Scientific in Milleville, N.J.) and labeled. Groups of eight of such vials were then stored at 4° C., RT (22° C.) and/or 40° C. for stability studies.
The samples of the formulations at each of the above three temperatures were then periodically analyzed for the chemical stability of Compound 1. The compound was assayed using high performance liquid chromatographic (HPLC) system. The results of this analysis is set forth in Table 2 setting forth the amount of Compound 1 remaining in the formulation following a certain number of days at specified temperatures.

In the case of `CCCCCc1cc2c(cc1C(=O)Oc1ccc(C(=O)O)cn1)C(C)(C)CCC2(C)C` [Compound I], the “Stabilization of the compound in topical liquid or semisolid pharmaceutical formulations” value is listed as “None of these formulations, however, were capable of sufficiently stabilizing the compound”.
